Data taken from patent publication US12539292B2, “BRM targeting compounds and associated methods of use” (Arvinas Operations, Inc., priority 2018, dated 2026).
Like-named read-outs stand apart in the source and are kept apart here.

Target: T1, BRM (Homo sapiens, UniProt P51531)
T1 construct: In-Cell Western Screen of BRM Degradation in SW1573 Cells; endogenous in cells; host or cells: SW1573
Assay: In-cell Western screen of BRM degradation in SW1573 cells (Dmax and DC50)
Assay type: cell-based
Method in brief: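 Overnight compound treatment (18-20 h, final DMSO 0.1%) of SW1573 cells in DMEM with 10% FBS precedes fixation and in-cell Western staining with 800/680 nm dye-labelled secondaries. Plate images give DC50 and maximal degradation.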

[1] = BRM degradation, SW1573 cells, read-out: DC50
[2] = BRM degradation, SW1573 cells, tested at the top concentration of between 0.3 and 10 μM, read-out: Dmax (%) (% degraded)
[3] = SW1573, % degraded, when tested at the top concentration of between 0.3 and 10 μM, read-out: BRM Dmax (%)
[4] = target protein degradation, read-out: BRM DC50

T1 sequence (P51531 whole entry): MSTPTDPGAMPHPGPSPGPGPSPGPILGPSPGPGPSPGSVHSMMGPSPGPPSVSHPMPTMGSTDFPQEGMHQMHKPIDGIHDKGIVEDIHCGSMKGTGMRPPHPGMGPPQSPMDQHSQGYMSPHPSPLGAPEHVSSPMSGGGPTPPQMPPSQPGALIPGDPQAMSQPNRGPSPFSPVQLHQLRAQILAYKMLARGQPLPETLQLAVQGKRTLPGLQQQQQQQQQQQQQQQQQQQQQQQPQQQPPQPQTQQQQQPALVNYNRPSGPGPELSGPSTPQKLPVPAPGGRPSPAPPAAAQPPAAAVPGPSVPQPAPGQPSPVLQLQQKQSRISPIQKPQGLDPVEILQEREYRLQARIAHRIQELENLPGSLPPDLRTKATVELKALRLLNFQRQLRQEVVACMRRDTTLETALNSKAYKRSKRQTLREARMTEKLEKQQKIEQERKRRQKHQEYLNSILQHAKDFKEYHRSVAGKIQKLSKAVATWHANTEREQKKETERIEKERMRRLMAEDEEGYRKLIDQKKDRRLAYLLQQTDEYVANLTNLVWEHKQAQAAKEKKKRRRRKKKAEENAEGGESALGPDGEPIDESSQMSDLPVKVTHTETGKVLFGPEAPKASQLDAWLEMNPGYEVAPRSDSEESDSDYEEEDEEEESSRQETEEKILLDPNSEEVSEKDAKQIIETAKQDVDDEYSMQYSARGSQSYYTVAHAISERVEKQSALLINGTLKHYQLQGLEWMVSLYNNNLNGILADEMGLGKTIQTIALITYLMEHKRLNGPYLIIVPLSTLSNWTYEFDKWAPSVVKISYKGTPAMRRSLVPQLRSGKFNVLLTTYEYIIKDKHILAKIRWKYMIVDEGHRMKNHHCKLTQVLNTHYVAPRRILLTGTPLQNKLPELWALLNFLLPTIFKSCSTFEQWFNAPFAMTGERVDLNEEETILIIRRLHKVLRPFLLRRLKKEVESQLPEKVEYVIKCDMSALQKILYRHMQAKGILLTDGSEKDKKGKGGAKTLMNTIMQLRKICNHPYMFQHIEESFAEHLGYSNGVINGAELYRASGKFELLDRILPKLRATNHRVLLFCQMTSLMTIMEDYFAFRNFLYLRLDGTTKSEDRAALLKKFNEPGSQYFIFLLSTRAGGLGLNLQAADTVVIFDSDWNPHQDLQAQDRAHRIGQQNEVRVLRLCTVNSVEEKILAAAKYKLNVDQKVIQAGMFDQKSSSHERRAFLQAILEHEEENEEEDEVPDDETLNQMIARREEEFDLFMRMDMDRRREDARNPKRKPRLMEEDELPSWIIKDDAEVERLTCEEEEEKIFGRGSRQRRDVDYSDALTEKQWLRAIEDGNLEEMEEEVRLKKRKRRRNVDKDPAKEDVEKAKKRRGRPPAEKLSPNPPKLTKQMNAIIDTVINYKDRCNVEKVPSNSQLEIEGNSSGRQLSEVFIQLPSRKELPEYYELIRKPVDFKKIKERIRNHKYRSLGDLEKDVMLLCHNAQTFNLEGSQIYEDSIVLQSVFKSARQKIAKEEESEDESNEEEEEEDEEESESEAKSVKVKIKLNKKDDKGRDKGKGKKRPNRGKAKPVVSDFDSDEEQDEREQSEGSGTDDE

Compound	DC50 [1]	Dmax [2]	Dmax [3]	DC50 [4]
Cc1ncsc1-c1ccc([C@@H](COCC(C)C)NC(=O)[C@@H]2C[C@@H](O)CN2C(=O)[C@H](c2cc(OCCN3CCN(CCOc4cc(N5C6CCC5CN(c5cc(-c7ccccc7O)nnc5N)C6)ccn4)CC3)no2)C(C)C)cc1 [compound 297]	> 30 nM	–	–	–
Cc1ncsc1-c1ccc([C@@H](COCC(C)C)NC(=O)[C@@H]2C[C@@H](O)CN2C(=O)[C@@H](c2cc(OCCN3CCN(CCOc4cc(N5C6CCC5CN(c5cc(-c7ccccc7O)nnc5N)C6)ccn4)CC3)no2)C(C)C)cc1 [compound 298, (2S,4R)-1-((2R)-2-(3-(2-(4-(2-((4-(3-(3-amino-6-(2-hydroxyphenyl)pyridazin-4-yl)-3,8-diazabicyclo[3.2.1]octan-8-yl)pyridin-2-yl)oxy)ethyl)piperazin-1-yl)ethoxy)isoxazol-5-yl)-3-methylbutanoyl)-4-hydroxy-N-((S)-2-isobutoxy-1-(4-(4-methylthiazol-5-yl)phenyl)ethyl)pyrrolidine-2-carboxamide]	< 2.5 nM	> 75%	–	–
Cc1ncoc1-c1ccc([C@H](C)NC(=O)[C@@H]2C[C@@H](O)CN2C(=O)[C@H](c2cc(OCCN3CCN(CCOc4cc(N5C6CCC5CN(c5cc(-c7ccccc7O)nnc5N)C6)ccn4)CC3)no2)C(C)C)cc1 [compound 299, (2S,4R)-1-((2S)-2-(3-(2-(4-(2-((4-(3-(3-amino-6-(2-hydroxyphenyl)pyridazin-4-yl)-3,8-diazabicyclo[3.2.1]octan-8-yl)pyridin-2-yl)oxy)ethyl)piperazin-1-yl)ethoxy)isoxazol-5-yl)-3-methylbutanoyl)-4-hydroxy-N-((S)-1-(4-(4-methyloxazol-5-yl)phenyl)ethyl)pyrrolidine-2-carboxamide]	> 30 nM	–	–	–
Cc1ncoc1-c1ccc([C@H](C)NC(=O)[C@@H]2C[C@@H](O)CN2C(=O)[C@@H](c2cc(OCCN3CCN(CCOc4cc(N5C6CCC5CN(c5cc(-c7ccccc7O)nnc5N)C6)ccn4)CC3)no2)C(C)C)cc1 [compound 300, (2S,4R)-1-((2R)-2-(3-(2-(4-(2-((4-(3-(3-amino-6-(2-hydroxyphenyl)pyridazin-4-yl)-3,8-diazabicyclo[3.2.1]octan-8-yl)pyridin-2-yl)oxy)ethyl)piperazin-1-yl)ethoxy)isoxazol-5-yl)-3-methylbutanoyl)-4-hydroxy-N-((S)-1-(4-(4-methyloxazol-5-yl)phenyl)ethyl)pyrrolidine-2-carboxamide]	< 2.5 nM	> 75%	–	–
Cc1cc([C@@H](C(=O)N2C[C@H](O)C[C@H]2C(=O)N[C@@H](C)c2ccc(-c3scnc3C)cc2)[C@@H](C)COCCOc2cc(N3C4CCC3CN(c3cc(-c5ccccc5O)nnc3N)C4)ccn2)on1 [compound 301, (2S,4R)-1-((2S,3R)-4-(2-((4-(3-(3-amino-6-(2-hydroxyphenyl)pyridazin-4-yl)-3,8-diazabicyclo[3.2.1]octan-8-yl)pyridin-2-yl)oxy)ethoxy)-3-methyl-2-(3-methylisoxazol-5-yl)butanoyl)-4-hydroxy-N-((S)-1-(4-(4-methylthiazol-5-yl)phenyl)ethyl)pyrrolidine-2-carboxamide]	2.5 to 10 nM	> 75%	–	–
Cc1cc([C@H](C(=O)N2C[C@H](O)C[C@H]2C(=O)N[C@@H](C)c2ccc(-c3scnc3C)cc2)[C@@H](C)COCCOc2cc(N3C4CCC3CN(c3cc(-c5ccccc5O)nnc3N)C4)ccn2)on1 [compound 302, (2S,4R)-1-((2R,3R)-4-(2-((4-(3-(3-amino-6-(2-hydroxyphenyl)pyridazin-4-yl)-3,8-diazabicyclo[3.2.1]octan-8-yl)pyridin-2-yl)oxy)ethoxy)-3-methyl-2-(3-methylisoxazol-5-yl)butanoyl)-4-hydroxy-N-((S)-1-(4-(4-methylthiazol-5-yl)phenyl)ethyl)pyrrolidine-2-carboxamide]	10 to 30 nM	> 75%	–	–
CC[C@H](NC(=O)[C@@H]1C[C@@H](O)CN1C(=O)[C@H](c1cc(OCCN2CCC(O[C@H]3C[C@H](Oc4cc(N5C6CCC5CN(c5cc(-c7ccccc7O)nnc5N)C6)ccn4)C3)CC2)no1)C(C)C)c1ccc(-c2scnc2C)cc1 [compound 350, (2S,4R)-1-((2S)-2-(3-(2-(4-((1r,3S)-3-((4-(3-(3-amino-6-(2-hydroxyphenyl)pyridazin-4-yl)-3,8-diazabicyclo[3.2.1]octan-8-yl)pyridin-2-yl)oxy)cyclobutoxy)piperidin-1-yl)ethoxy)isoxazol-5-yl)-3-methylbutanoyl)-4-hydroxy-N-((S)-1-(4-(4-methylthiazol-5-yl)phenyl)propyl)pyrrolidine-2-carboxamide]	> 30 nM	–	–	–
CC[C@H](NC(=O)[C@@H]1C[C@@H](O)CN1C(=O)C(c1cc(OCCN2CCC(O[C@H]3C[C@H](Oc4cc(N5C6CCC5CN(c5cc(-c7ccccc7O)nnc5N)C6)ccn4)C3)CC2)no1)C(C)C)c1ccc(-c2scnc2C)cc1 (stereo partly drawn) [compound 351, (2S,4R)-1-((2R)-2-(3-(2-(4-((1r,3R)-3-((4-(3-(3-amino-6-(2-hydroxyphenyl)pyridazin-4-yl)-3,8-diazabicyclo[3.2.1]octan-8-yl)pyridin-2-yl)oxy)cyclobutoxy)piperidin-1-yl)ethoxy)isoxazol-5-yl)-3-methylbutanoyl)-4-hydroxy-N-((S)-1-(4-(4-methylthiazol-5-yl)phenyl)propyl)pyrrolidine-2-carboxamide]	< 2.5 nM	> 75%	–	–
Cc1ncsc1-c1ccc([C@H](C)NC(=O)[C@@H]2C[C@@H](O)CN2C(=O)[C@@H](c2cc(OCCN3CCN(CCC#CCn4cc(-c5cc(-c6ccccc6O)nnc5N)cn4)CC3)no2)C(C)C)cn1 [compound 352, (2S,4R)-1-((R)-2-(3-(2-(4-(5-(4-(3-amino-6-(2-hydroxyphenyl)pyridazin-4-yl)-1H-pyrazol-1-yl)pent-3-yn-1-yl)piperazin-1-yl)ethoxy)isoxazol-5-yl)-3-methylbutanoyl)-4-hydroxy-N-((S)-1-(6-(4-methylthiazol-5-yl)pyridin-3-yl)ethyl)pyrrolidine-2-carboxamide]	< 2.5 nM	> 75%	–	–
Cc1ncsc1-c1ccc([C@H](C)NC(=O)[C@@H]2C[C@@H](O)CN2C(=O)[C@H](c2cc(OCCN3CCC(OC4CN(c5cc(N6C7CCC6CN(c6cc(-c8ccccc8O)nnc6N)C7)ccn5)C4)CC3)no2)C(C)C)cc1 [compound 354, (2S,4R)-1-((2S)-2-(3-(2-(4-((1-(4-(3-(3-amino-6-(2-hydroxyphenyl)pyridazin-4-yl)-3,8-diazabicyclo[3.2.1]octan-8-yl)pyridin-2-yl)azetidin-3-yl)oxy)piperidin-1-yl)ethoxy)isoxazol-5-yl)-3-methylbutanoyl)-4-hydroxy-N-((S)-1-(4-(4-methylthiazol-5-yl)phenyl)ethyl)pyrrolidine-2-carboxamide]	–	–	> 75%	2.5 to 10 nM
Cc1ncsc1-c1ccc([C@H](C)NC(=O)[C@@H]2C[C@@H](O)CN2C(=O)[C@@H](c2cc(OCCN3CCC(OC4CN(c5cc(N6C7CCC6CN(c6cc(-c8ccccc8O)nnc6N)C7)ccn5)C4)CC3)no2)C(C)C)cc1 [compound 355, (2S,4R)-1-((2R)-2-(3-(2-(4-((1-(4-(3-(3-amino-6-(2-hydroxyphenyl)pyridazin-4-yl)-3,8-diazabicyclo[3.2.1]octan-8-yl)pyridin-2-yl)azetidin-3-yl)oxy)piperidin-1-yl)ethoxy)isoxazol-5-yl)-3-methylbutanoyl)-4-hydroxy-N-((S)-1-(4-(4-methylthiazol-5-yl)phenyl)ethyl)pyrrolidine-2-carboxamide]	–	–	> 75%	< 2.5 nM
Cc1ncsc1-c1ccc([C@H](C)NC(=O)[C@@H]2C[C@@H](O)CN2C(=O)[C@H](c2cc(OCCOCCOc3cc(N4C5CCC4CN(c4cc(-c6ccccc6O)nnc4N)C5)ccn3)no2)C(C)C)cc1 [compound 356, (2S,4R)-1-((2S)-2-(3-(2-(2-((4-(3-(3-amino-6-(2-hydroxyphenyl)pyridazin-4-yl)-3,8-diazabicyclo[3.2.1]octan-8-yl)pyridin-2-yl)oxy)ethoxy)ethoxy)isoxazol-5-yl)-3-methylbutanoyl)-4-hydroxy-N-((S)-1-(4-(4-methylthiazol-5-yl)phenyl)ethyl)pyrrolidine-2-carboxamide]	–	–	–	> 30 nM
Cc1ncsc1-c1ccc([C@H](C)NC(=O)[C@@H]2C[C@@H](O)CN2C(=O)[C@@H](c2cc(OCCOCCOc3cc(N4C5CCC4CN(c4cc(-c6ccccc6O)nnc4N)C5)ccn3)no2)C(C)C)cc1 [compound 357, (2S,4R)-1-((2R)-2-(3-(2-(2-((4-(3-(3-amino-6-(2-hydroxyphenyl)pyridazin-4-yl)-3,8-diazabicyclo[3.2.1]octan-8-yl)pyridin-2-yl)oxy)ethoxy)ethoxy)isoxazol-5-yl)-3-methylbutanoyl)-4-hydroxy-N-((S)-1-(4-(4-methylthiazol-5-yl)phenyl)ethyl)pyrrolidine-2-carboxamide]	–	–	> 75%	< 2.5 nM
Cc1ncsc1-c1ccc([C@H](C)NC(=O)[C@@H]2C[C@@H](O)CN2C(=O)[C@H](c2cc(OCCN3CCC(O[C@H]4C[C@H](OCCN5CCOC6(CCN(c7cc(-c8ccccc8O)nnc7N)CC6)C5)C4)CC3)no2)C(C)C)cc1 [compound 358, (2S,4R)-1-((S)-2-(3-(2-(4-((1r,3S)-3-(2-(9-(3-amino-6-(2-hydroxyphenyl)pyridazin-4-yl)-1-oxa-4,9-diazaspiro[5.5]undecan-4-yl)ethoxy)cyclobutoxy)piperidin-1-yl)ethoxy)isoxazol-5-yl)-3-methylbutanoyl)-4-hydroxy-N-((S)-1-(4-(4-methylthiazol-5-yl)phenyl)ethyl)pyrrolidine-2-carboxamide]	–	–	–	> 30 nM
